In ChEMBL document CHEMBL5096228, “Targeting Vancomycin-Resistant Enterococci (VRE) Infections and Van Operon-Mediated Drug Resistance Using Dimeric Cholic Acid-Peptide Conjugates” (J Med Chem, 2022):
≈ marks a conversion by molar mass, not a printed value. Positions of bridges follow the written chain, without caps; N, C: chain ends. Non-standard residues stand in square brackets, D forms with d. Residues, ends and D or L forms follow the SMILES beside them. *: point of attachment. X1 = CC[C@H](C)CCCCC(=O)*; Dab = NCC[C@H](N)C(=O)O

Tests used:
Staphylococcus aureus [1] = assay: Antimicrobial activity against Staphylococcus aureus ATCC 25923 assessed as growth inhibition after 14 to 16 hrs by CLSI based broth dilution method; format: functional; settings: time 14-16 hrs
Enterococcus faecium [2] = assay: Antimicrobial activity against Enterococcus faecium assessed as growth inhibition after 14 to 16 hrs by CLSI based broth dilution method; format: functional; settings: time 14-16 hrs
Staphylococcus aureus [3] = assay: Antimicrobial activity against methicillin-resistant Staphylococcus aureus ATCC 33591 assessed as growth inhibition after 14 to 16 hrs by CLSI based broth dilution method; format: functional; settings: time 14-16 hrs
Enterococcus faecium [4] = assay: Antimicrobial activity against Vancomycin-resistant Enterococcus faecium ATCC 51559 assessed as growth inhibition after 14 to 16 hrs by CLSI based broth dilution method; format: functional; settings: time 14-16 hrs
[5] = Cytotoxicity against mouse LLC cells assessed as reduction in cell viability; format: toxicity, cell-based; settings: LLC (3LL) cells
[6] = Hemolytic activity in human RBC at 50 ug/ml; format: toxicity, cell-based, Erythrocyte; settings: red blood cells (erythrocytes), at 50 µg/mL, read-out: Activity

For `C[C@H](CCC(=O)NCc1cn(CCCCCCn2cc(CNC(=O)CC[C@@H](C)[C@H]3CC[C@H]4[C@@H]5[C@H](OC(=O)CN)C[C@@H]6C[C@H](OC(=O)CN)CC[C@]6(C)[C@H]5C[C@H](OC(=O)CN)[C@]34C)nn2)nn1)[C@H]1CC[C@H]2[C@@H]3[C@H](OC(=O)CN)C[C@@H]4C[C@H](OC(=O)CN)CC[C@]4(C)[C@H]3C[C@H](OC(=O)CN)[C@]12C.Cl.Cl.Cl.Cl.Cl.Cl`, the MIC99 (Staphylococcus aureus [1]) was 128 µg/mL, the MIC99 (Enterococcus faecium [2]) was 16 µg/mL and the MIC99 (Staphylococcus aureus [3]) was 32 µg/mL. For the same molecule, the MIC99 (Enterococcus faecium [4]) was 8 µg/mL, the IC50 [5] was 66 µg/mL and the hemolysis at 50 ug/ml [6] was 58%.

For `CC(C)C(N)C(=O)NCC(=O)O[C@@H]1CC[C@@]2(C)[C@@H](C1)C[C@@H](OC(=O)CNC(=O)C(N)C(C)C)[C@@H]1[C@@H]2C[C@H](OC(=O)CNC(=O)C(N)C(C)C)[C@]2(C)[C@@H]([C@H](C)CCC(=O)OCc3ccccc3)CC[C@@H]12` (some centres not stated), the MIC99 (Staphylococcus aureus [1]) was 16 µg/mL (≈ 16.5 µM), the MIC99 (Enterococcus faecium [2]) was 8 µg/mL (≈ 8.27 µM) and the MIC99 (Staphylococcus aureus [3]) was 4 µg/mL (≈ 4.14 µM). The MIC99 (Enterococcus faecium [4]) was 2 µg/mL (≈ 2.07 µM), the IC50 [5] was 40 µg/mL and the hemolysis at 50 ug/ml [6] was 95%.

Work on `C[C@H](CCC(=O)NCc1cn(CCCn2cc(CNC(=O)CC[C@@H](C)[C@H]3CC[C@H]4[C@@H]5[C@H](OC(=O)CN)C[C@@H]6C[C@H](OC(=O)CN)CC[C@]6(C)[C@H]5C[C@H](OC(=O)CN)[C@]34C)nn2)nn1)[C@H]1CC[C@H]2[C@@H]3[C@H](OC(=O)CN)C[C@@H]4C[C@H](OC(=O)CN)CC[C@]4(C)[C@H]3C[C@H](OC(=O)CN)[C@]12C.Cl.Cl.Cl.Cl.Cl.Cl` yielded an MIC99 (Staphylococcus aureus [1]) of 128 µg/mL, an MIC99 (Enterococcus faecium [2]) of 32 µg/mL and an MIC99 (Staphylococcus aureus [3]) of 32 µg/mL. It also gave an MIC99 (Enterococcus faecium [4]) of 16 µg/mL, an IC50 [5] of 131 µg/mL and a hemolysis at 50 ug/ml [6] of 9%.

Molecule `C[C@H](CCC(=O)NCc1cn(CCCCCn2cc(CNC(=O)CC[C@@H](C)[C@H]3CC[C@H]4[C@@H]5[C@H](OC(=O)CN)C[C@@H]6C[C@H](OC(=O)CN)CC[C@]6(C)[C@H]5C[C@H](OC(=O)CN)[C@]34C)nn2)nn1)[C@H]1CC[C@H]2[C@@H]3[C@H](OC(=O)CN)C[C@@H]4C[C@H](OC(=O)CN)CC[C@]4(C)[C@H]3C[C@H](OC(=O)CN)[C@]12C.Cl.Cl.Cl.Cl.Cl.Cl` has an MIC99 (Staphylococcus aureus [1]) of 128 µg/mL, an MIC99 (Enterococcus faecium [2]) of 32 µg/mL and an MIC99 (Staphylococcus aureus [3]) of 64 µg/mL. For the same molecule, the MIC99 (Enterococcus faecium [4]) was 16 µg/mL, the IC50 [5] was 153 µg/mL and the hemolysis at 50 ug/ml [6] was 10%.

For `CC[C@H](C)CCCCC(=O)N[C@@H](CCN)C(=O)N[C@H](C(=O)N[C@@H](CCN)C(=O)N[C@H]1CCNC(=O)[C@H]([C@@H](C)O)NC(=O)[C@H](CCN)NC(=O)[C@H](CCN)NC(=O)[C@H](CC(C)C)NC(=O)[C@@H](Cc2ccccc2)NC(=O)[C@H](CCN)NC1=O)[C@@H](C)O` (X1-[Dab]T[Dab][Dab][Dab][dF]L[Dab][Dab]T; lactam 4-C), the MIC99 (Staphylococcus aureus [1]) was 128 µg/mL (≈ 106 µM), the MIC99 (Enterococcus faecium [2]) was over 128 µg/mL and the MIC99 (Staphylococcus aureus [3]) was 32 µg/mL (≈ 26.6 µM). For the same molecule, the MIC99 (Enterococcus faecium [4]) was over 128 µg/mL.

Work on `C[C@H](CCC(=O)NCc1cn(CCCCn2cc(CNC(=O)CC[C@@H](C)[C@H]3CC[C@H]4[C@@H]5[C@H](OC(=O)CN)C[C@@H]6C[C@H](OC(=O)CN)CC[C@]6(C)[C@H]5C[C@H](OC(=O)CN)[C@]34C)nn2)nn1)[C@H]1CC[C@H]2[C@@H]3[C@H](OC(=O)CN)C[C@@H]4C[C@H](OC(=O)CN)CC[C@]4(C)[C@H]3C[C@H](OC(=O)CN)[C@]12C.Cl.Cl.Cl.Cl.Cl.Cl` yielded an MIC99 (Staphylococcus aureus [1]) of 128 µg/mL, an MIC99 (Enterococcus faecium [2]) of 64 µg/mL and an MIC99 (Staphylococcus aureus [3]) of 64 µg/mL. The MIC99 (Enterococcus faecium [4]) was 32 µg/mL, the IC50 [5] was 211 µg/mL and the hemolysis at 50 ug/ml [6] was 2%.

`CC(C)C(N)C(=O)NCC(=O)O[C@@H]1CC[C@@]2(C)[C@@H](C1)C[C@@H](OC(=O)CNC(=O)C(N)C(C)C)[C@@H]1[C@@H]2C[C@H](OC(=O)CNC(=O)C(N)C(C)C)[C@]2(C)[C@@H]([C@H](C)CCC(=O)NCc3cn(CCCCCn4cc(CNC(=O)CC[C@@H](C)[C@H]5CC[C@H]6[C@@H]7[C@H](OC(=O)CNC(=O)C(N)C(C)C)C[C@@H]8C[C@H](OC(=O)CNC(=O)C(N)C(C)C)CC[C@]8(C)[C@H]7C[C@H](OC(=O)CNC(=O)C(N)C(C)C)[C@]56C)nn4)nn3)CC[C@@H]12.Cl.Cl.Cl.Cl.Cl.Cl` (some centres not stated) gave an MIC99 (Staphylococcus aureus [1]) of 128 µg/mL, an MIC99 (Enterococcus faecium [2]) of 16 µg/mL and an MIC99 (Staphylococcus aureus [3]) of 32 µg/mL. For the same molecule, the MIC99 (Enterococcus faecium [4]) was 4 µg/mL, the IC50 [5] was 96 µg/mL and the hemolysis at 50 ug/ml [6] was 36%.

Molecule `CC(C)C(N)C(=O)NCC(=O)O[C@@H]1CC[C@@]2(C)[C@@H](C1)C[C@@H](OC(=O)CNC(=O)C(N)C(C)C)[C@@H]1[C@@H]2C[C@H](OC(=O)CNC(=O)C(N)C(C)C)[C@]2(C)[C@@H]([C@H](C)CCC(=O)NCc3cn(CCCCn4cc(CNC(=O)CC[C@@H](C)[C@H]5CC[C@H]6[C@@H]7[C@H](OC(=O)CNC(=O)C(N)C(C)C)C[C@@H]8C[C@H](OC(=O)CNC(=O)C(N)C(C)C)CC[C@]8(C)[C@H]7C[C@H](OC(=O)CNC(=O)C(N)C(C)C)[C@]56C)nn4)nn3)CC[C@@H]12.Cl.Cl.Cl.Cl.Cl.Cl` (some centres not stated) has an MIC99 (Staphylococcus aureus [1]) of 128 µg/mL, an MIC99 (Enterococcus faecium [2]) of 8 µg/mL and an MIC99 (Staphylococcus aureus [3]) of 32 µg/mL. It also gave an MIC99 (Enterococcus faecium [4]) of 4 µg/mL, an IC50 [5] of 52 µg/mL and a hemolysis at 50 ug/ml [6] of 50%.

With `NC[C@@H]1O[C@H](O[C@H]2[C@@H](O)[C@H](O[C@@H]3[C@@H](O)[C@H](N)C[C@H](N)[C@H]3O[C@H]3O[C@H](CN)[C@@H](O)[C@H](O)[C@H]3N)O[C@@H]2CO)[C@H](N)[C@@H](O)[C@@H]1O` [FRAMYCETIN] the MIC99 (Staphylococcus aureus [1]) was 16 µg/mL (≈ 26 µM), the MIC99 (Enterococcus faecium [2]) was 16 µg/mL (≈ 26 µM) and the MIC99 (Staphylococcus aureus [3]) was over 128 µg/mL. It also gave an MIC99 (Enterococcus faecium [4]) of over 128 µg/mL and an IC50 [5] of over 1000 µM.

`CC(C)C(N)C(=O)NCC(=O)O[C@@H]1CC[C@@]2(C)[C@@H](C1)C[C@@H](OC(=O)CNC(=O)C(N)C(C)C)[C@@H]1[C@@H]2C[C@H](OC(=O)CNC(=O)C(N)C(C)C)[C@]2(C)[C@@H]([C@H](C)CCC(=O)NCc3cn(CCCCCCn4cc(CNC(=O)CC[C@@H](C)[C@H]5CC[C@H]6[C@@H]7[C@H](OC(=O)CNC(=O)C(N)C(C)C)C[C@@H]8C[C@H](OC(=O)CNC(=O)C(N)C(C)C)CC[C@]8(C)[C@H]7C[C@H](OC(=O)CNC(=O)C(N)C(C)C)[C@]56C)nn4)nn3)CC[C@@H]12.Cl.Cl.Cl.Cl.Cl.Cl` (some centres not stated) gave an MIC99 (Staphylococcus aureus [1]) of 128 µg/mL, an MIC99 (Enterococcus faecium [2]) of 16 µg/mL and an MIC99 (Staphylococcus aureus [3]) of 32 µg/mL. It also gave an MIC99 (Enterococcus faecium [4]) of 4 µg/mL, an IC50 [5] of 69 µg/mL and a hemolysis at 50 ug/ml [6] of 57%.
